Data: ChEMBL document CHEMBL5154933, “Development of Lipo-γ-AA Peptides as Potent Antifungal Agents” (J Med Chem, 2022)
In brackets after ≈: the same amount, converted by molar mass. Activity calls are given as the source filed them. The rule behind the calls is not given here.

Columns and labels:
[1] = Hemolytic activity in human RBC incubated for 1 hr by microplate reader method; assay type: toxicity, cell-based, Erythrocyte; conditions: red blood cells (erythrocytes)
[2] = Selectivity ratio of HC50 for hemolytic activity in human RBC to MIC for antifungal activity against Mucor racemosus MZ140; assay type: toxicity; conditions: red blood cells (erythrocytes)
[3] = Selectivity ratio of HC50 for hemolytic activity in human RBC to MIC for antifungal activity against Cryptococcus neoformans 5-FC; assay type: toxicity; conditions: red blood cells (erythrocytes)
[4] = Selectivity ratio of HC50 for hemolytic activity in human RBC to MIC for antifungal activity against Candida albicans CA17; assay type: toxicity; conditions: red blood cells (erythrocytes)
[5] = Selectivity ratio of HC50 for hemolytic activity in human RBC to MIC for antifungal activity against Candida albicans CARG5; assay type: toxicity; conditions: red blood cells (erythrocytes)
[6] = Selectivity ratio of HC50 for hemolytic activity in human RBC to MIC for antifungal activity against Cryptococcus neoformans H99; assay type: toxicity; conditions: red blood cells (erythrocytes)
[7] = Selectivity ratio of HC50 for hemolytic activity in human RBC to MIC for antifungal activity against Candida parapsilosis ATCC 22019; assay type: toxicity; conditions: red blood cells (erythrocytes)
Cryptococcus neoformans [8] = assay: Antifungal activity against Cryptococcus neoformans 5-FC assessed as fungal growth inhibition by broth microdilution assay; assay type: functional
Aspergillus fumigatus [9] = assay: Antifungal activity against Aspergillus fumigatus shjt40 assessed as fungal growth inhibition by broth microdilution assay; assay type: functional
Mucor racemosus [10] = assay: Antifungal activity against Mucor racemosus MZ140 assessed as fungal growth inhibition by broth microdilution assay; assay type: functional
[11] = Selectivity ratio of HC50 for hemolytic activity in human RBC to MIC for antifungal activity against Aspergillus fumigatus AF293; assay type: toxicity; conditions: red blood cells (erythrocytes)
[12] = Selectivity ratio of HC50 for hemolytic activity in human RBC to MIC for antifungal activity against Aspergillus fumigatus shjt40; assay type: toxicity; conditions: red blood cells (erythrocytes)
Mucor racemosus [13] = assay: Antifungal activity against Mucor racemosus R715 assessed as fungal growth inhibition by broth microdilution assay; assay type: functional
[14] = tested on: Cryptococcus deuterogattii; assay: Antifungal activity against Cryptococcus gattii VGII R265 assessed as fungal growth inhibition by broth microdilution assay; assay type: functional, Cryptococcus gattii species complex
Candida parapsilosis = assay: Antifungal activity against Candida parapsilosis ATCC 22019 assessed as fungal growth inhibition by broth microdilution assay; assay type: functional; conditions: Lodderomyces parapsilosis
Candida albicans [15] = assay: Antifungal activity against Candida albicans CARG5 assessed as fungal growth inhibition by broth microdilution assay; assay type: functional
Aspergillus fumigatus [16] = assay: Antifungal activity against Aspergillus fumigatus AF293 assessed as fungal growth inhibition by broth microdilution assay; assay type: functional
Candida albicans [17] = assay: Antifungal activity against Candida albicans CA17 assessed as fungal growth inhibition by broth microdilution assay; assay type: functional
Candida albicans [18] = assay: Antifungal activity against Candida albicans 28A assessed as fungal growth inhibition by broth microdilution assay; assay type: functional
[19] = Selectivity ratio of HC50 for hemolytic activity in human RBC to MIC for antifungal activity against Candida krusei ATCC6258; assay type: toxicity; conditions: red blood cells (erythrocytes)
Cryptococcus neoformans [20] = assay: Antifungal activity against Cryptococcus neoformans H99 assessed as fungal growth inhibition by broth microdilution assay; assay type: functional
[21] = Selectivity ratio of HC50 for hemolytic activity in human RBC to MIC for antifungal activity against Cryptococcus gattii R265; assay type: toxicity; conditions: red blood cells (erythrocytes)
[22] = Selectivity ratio of HC50 for hemolytic activity in human RBC to MIC for antifungal activity against Candida albicans SC5314; assay type: toxicity; conditions: red blood cells (erythrocytes)
Pichia kudriavzevii = assay: Antifungal activity against Candida krusei ATCC6258 assessed as fungal growth inhibition by broth microdilution assay; assay type: functional
[23] = Selectivity ratio of HC50 for hemolytic activity in human RBC to MIC for antifungal activity against Mucor racemosus R715; assay type: toxicity; conditions: red blood cells (erythrocytes)
Candida albicans [24] = assay: Antifungal activity against Candida albicans SC5314 assessed as fungal growth inhibition by broth microdilution assay; assay type: functional
[25] = Selectivity ratio of HC50 for hemolytic activity in human RBC to MIC for antifungal activity against Candida albicans 28A; assay type: toxicity; conditions: red blood cells (erythrocytes)
Candida albicans [26] = assay: Potentiation of antifungal activity against fluconazole-sensitive Candida albicans YEM13 overexpressing efflux pump MDR1 gene assessed as fold reduction in fluconazole MIC at 1 ug/ml incubated for 24 hrs by checkerboard broth microdilution assay; assay type: functional; conditions: dose 1 µg/ml
Candida albicans [27] = assay: Induction of reactive oxygen species generation in Candida albicans SC5314 assessed as increase in fluorescence intensity incubated for 1 hr by DCF-DA staining based method; assay type: functional, organism-based; conditions: DDE = dose-dependent effect
[28] = Cytotoxicity against HEK293T cells measured after 48 hrs by CCK8 assay; assay type: toxicity, cell-based, HEK-293T; conditions: human
Cryptococcus neoformans [29] = assay: Fungicidal activity against Cryptococcus neoformans H99 at 8 times of MIC measured after 10 to 25 mins by time-kill assay; assay type: functional, organism-based; conditions: time 10-25 min
Candida albicans [30] = assay: Potentiation of antifungal activity against fluconazole-sensitive Candida albicans YEM12 overexpressing efflux pump MDR1 gene assessed as fold reduction in fluconazole MIC at 1 ug/ml incubated for 24 hrs by checkerboard broth microdilution assay; assay type: functional; conditions: dose 1 µg/ml
Cell membrane [31] = assay: Induction of membrane permeabilization in Candida albicans SC5314 assessed as damage and rupture of fungal cell membrane at 8 times MIC incubated for 4 hrs by scanning electron microscopic analysis; assay type: subcellular
[32] = Toxicity against Galleria mellonella larva infected with Candida albicans SC5314 assessed as increase in survival rate at 8 mg/kg measured for 14 days; assay type: organism-based; conditions: in vivo, 336 h, time 14 day
Cell membrane [33] = assay: Induction of membrane permeabilization in Candida albicans SC5314 assessed as distruption of fungal cell membrane by measuring PI positive cells at 8 times MIC measured after 1 hrs by propidium iodide and DAPI staining based fluorescence microscopic analysis; assay type: subcellular
Cryptococcus neoformans [34] = assay: Fungicidal activity against Cryptococcus neoformans H99 at 4 times MIC50 measured after 10 to 25 mins by time-kill assay; assay type: functional, organism-based; conditions: time 10-25 min
Candida albicans [35] = assay: Synergistic antifungal activity against fluconazole-resistant Candida albicans CARG5 assessed as reduction in fluconazole MIC at 1 microg/ml incubated for 24 hrs by checkerboard broth microdilution assay ( Rvb = > 128 microg/ml); assay type: functional; conditions: dose 1 µg/ml
Candida albicans [36] = assay: Fungicidal activity against Candida albicans SC5314 at 8 times MIC50 measured after 10 mins by time-kill assay; assay type: functional, organism-based
Candida albicans [37] = assay: Antifungal activity against Candida albicans CARG5 infected in BALB/c mouse surgical wound model assessed as reduction in fungal burden smeared on wound at 8 mg/kg administered every 12 hrs for 48 hrs in presence of fluconazole; assay type: functional, organism-based
Candida albicans [38] = assay: Increase in intracellular fluconazole accumulation in fluconazole-resistant Candida albicans CARG5 at 1 ug/ml incubated for 1 hr by fluorescence based analysis; assay type: functional, cell-based; conditions: dose 1.0 µg/ml
Candida albicans [39] = assay: Synergistic antifungal activity against fluconazole-resistant Candida albicans CARG5 assessed as fractional inhibitory concentration index incubated for 24 hrs by checkerboard broth microdilution assay; assay type: functional
Candida albicans [40] = assay: Effect on efflux pump function in Candida albicans CARG5 assessed as increase in Nile red fluorescence at 1 ug/ml incubated for 1 hr by FACScan flow cytometer analysis; assay type: functional; conditions: dose 1.0 µg/ml
Candida albicans [41] = assay: Fungicidal activity against Candida albicans SC5314 assessed as fungal growth inhibition incubated for 24 hrs by resazurin dye based assay; assay type: functional

SMILES: CCCCCCCCCCCCCCCCCC(=O)N[C@@H](CCCCN)C(=O)N[C@@H](Cc1ccccc1)CN(CC(N)=O)C(=O)CCN
- HC50 at 1 h [1]: > 250 µg/mL
- selectivity ratio [2]: ≤ 125
- selectivity ratio [3]: ≤ 125
- selectivity ratio [4]: ≤ 125
- selectivity ratio [5]: ≤ 125
- selectivity ratio [6]: ≤ 125
- selectivity ratio [7]: ≤ 125
- MIC50 (Cryptococcus neoformans [8]): 2 µg/mL (≈ 2.97 µM)
- MIC50 (Aspergillus fumigatus [9]): 8 µg/mL (≈ 11.9 µM)
- MIC50 (Mucor racemosus [10]): 16 µg/mL (≈ 23.8 µM)
- selectivity ratio [11]: ≤ 125
- selectivity ratio [12]: ≤ 125
- MIC50 (Mucor racemosus [13]): 16 µg/mL (≈ 23.8 µM)
- MIC50 [14]: 2 µg/mL (≈ 2.97 µM)
- MIC50 (Candida parapsilosis): 2 µg/mL (≈ 2.97 µM)
- MIC50 (Candida albicans [15]): 2 µg/mL (≈ 2.97 µM)
- MIC50 (Aspergillus fumigatus [16]): 8 µg/mL (≈ 11.9 µM)
- MIC50 (Candida albicans [17]): 4 µg/mL (≈ 5.94 µM)
- MIC50 (Candida albicans [18]): 2 µg/mL (≈ 2.97 µM)
- selectivity ratio [19]: ≤ 125
- MIC50 (Cryptococcus neoformans [20]): 2 µg/mL (≈ 2.97 µM)
- selectivity ratio [21]: ≤ 125
- selectivity ratio [22]: ≤ 125
- MIC50 (Pichia kudriavzevii): 4 µg/mL (≈ 5.94 µM)
- selectivity ratio [23]: ≤ 125
- MIC50 (Candida albicans [24]): 2 µg/mL (≈ 2.97 µM)
- selectivity ratio [25]: ≤ 125

SMILES: CCC(C)n1ncn(-c2ccc(N3CCN(c4ccc(OCC5COC(Cn6cncn6)(c6ccc(Cl)cc6Cl)O5)cc4)CC3)cc2)c1=O (stereo not drawn) [ITRACONAZOLE]
- MIC50 (Aspergillus fumigatus [9]): > 32 µg/mL
- MIC50 (Mucor racemosus [10]): 1 µg/mL (≈ 1.42 µM)
- MIC50 (Mucor racemosus [13]): 1 µg/mL (≈ 1.42 µM)
- MIC50 (Aspergillus fumigatus [16]): 1 µg/mL (≈ 1.42 µM)

SMILES: CCCCCCCCCCCCCCCC(=O)N[C@@H](CCCN)C(=O)N[C@@H](Cc1ccccc1)CN(CC(N)=O)C(=O)CCN
- HC50 at 1 h [1]: > 250 µg/mL
- fold change (FC) (Candida albicans [26]): 8
- Activity (Candida albicans [27]): Dde
- selectivity ratio [2]: ≤ 125
- selectivity ratio [3]: ≤ 125
- selectivity ratio [4]: ≤ 125
- selectivity ratio [5]: ≤ 125
- IC50 at 48 h [28]: 32.2 µg/mL (≈ 51 µM)
- selectivity ratio [6]: ≤ 125
- Activity (Cryptococcus neoformans [29]): Active
- selectivity ratio [7]: ≤ 125
- MIC50 (Cryptococcus neoformans [8]): 2 µg/mL (≈ 3.17 µM)
- fold change (FC) (Candida albicans [30]): 2
- Activity (Cell membrane [31]): Active
- Activity [32]: Non-Toxic
- Activity (Cell membrane [33]): Active
- MIC50 (Aspergillus fumigatus [9]): 4 µg/mL (≈ 6.34 µM)
- Activity (Cryptococcus neoformans [34]): Active
- MIC50 (Mucor racemosus [10]): 8 µg/mL (≈ 12.7 µM)
- selectivity ratio [11]: ≤ 125
- selectivity ratio [12]: ≤ 125
- MIC50 (Mucor racemosus [13]): 4 µg/mL (≈ 6.34 µM)
- MIC50 [14]: 2 µg/mL (≈ 3.17 µM)
- MIC50 (Candida albicans [35]): 1 µg/mL
- MIC50 (Candida parapsilosis): 2 µg/mL (≈ 3.17 µM)
- MIC50 (Candida albicans [15]): 2 µg/mL (≈ 3.17 µM)
- MIC50 (Aspergillus fumigatus [16]): 4 µg/mL (≈ 6.34 µM)
- Activity (Candida albicans [36]): Active
- Activity (Candida albicans [37]): Active
- MIC50 (Candida albicans [17]): 2 µg/mL (≈ 3.17 µM)
- MIC50 (Candida albicans [18]): 2 µg/mL (≈ 3.17 µM)
- selectivity ratio [19]: ≤ 125
- MIC50 (Cryptococcus neoformans [20]): 2 µg/mL (≈ 3.17 µM)
- selectivity ratio [21]: ≤ 125
- selectivity ratio [22]: ≤ 125
- MIC50 (Pichia kudriavzevii): 2 µg/mL (≈ 3.17 µM)
- selectivity ratio [23]: ≤ 125
- Activity (Candida albicans [38]): Active
- MIC50 (Candida albicans [24]): 2 µg/mL (≈ 3.17 µM)
- fractional inhibitory concentration index (FICI) (Candida albicans [39]): <=0.5
- Activity (Candida albicans [40]): Active
- MFC (Candida albicans [41]): 4 µg/mL (≈ 6.34 µM)
- selectivity ratio [25]: ≤ 125

SMILES: CCCCCCCC/C=C\CCCCCCCC(=O)N[C@@H](CCCCN)C(=O)N[C@@H](Cc1ccccc1)CN(CC(N)=O)C(=O)CCN
- HC50 at 1 h [1]: > 250 µg/mL
- selectivity ratio [3]: ≤ 125
- selectivity ratio [4]: ≤ 125
- selectivity ratio [5]: ≤ 125
- selectivity ratio [6]: ≤ 125
- selectivity ratio [7]: ≤ 125
- MIC50 (Cryptococcus neoformans [8]): 4 µg/mL (≈ 5.96 µM)
- MIC50 [14]: 4 µg/mL (≈ 5.96 µM)
- MIC50 (Candida parapsilosis): 4 µg/mL (≈ 5.96 µM)
- MIC50 (Candida albicans [15]): 4 µg/mL (≈ 5.96 µM)
- MIC50 (Candida albicans [17]): 4 µg/mL (≈ 5.96 µM)
- MIC50 (Candida albicans [18]): 4 µg/mL (≈ 5.96 µM)
- selectivity ratio [19]: ≤ 125
- MIC50 (Cryptococcus neoformans [20]): 4 µg/mL (≈ 5.96 µM)
- selectivity ratio [21]: ≤ 125
- selectivity ratio [22]: ≤ 125
- MIC50 (Pichia kudriavzevii): 4 µg/mL (≈ 5.96 µM)
- MIC50 (Candida albicans [24]): 4 µg/mL (≈ 5.96 µM)
- selectivity ratio [25]: ≤ 125
